Assay results: PubChem BioAssay (NCI)
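Briefly, cells in 96-well plates were exposed to five compound concentrations for 48 h, and endpoints were estimated by linear interpolation. At the TGI there is no net growth.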 Where a SMILES comes first, the peptide text is derived from it. [ ]: non-standard residue; d: D form. The star is where a group is joined. Phe(4-NO2) = N[CH](Cc1ccc([N+](=O)[O-])cc1)C(=O)O; Cbz = O=C(OCc1ccccc1)*

Key:
Test in all cases: inhibition of tumour cell growth, NCI panel, 48 h
K-562 leukemia = tested on: K-562 leukemia
MOLT-4 leukemia = tested on: MOLT-4 leukemia
LOX IMVI melanoma = tested on: LOX IMVI melanoma
OVCAR-4 ovarian = tested on: OVCAR-4 ovarian
SN12C renal = tested on: SN12C renal
NCI-H226 lung = tested on: NCI-H226 lung
MDA-N = tested on: MDA-N
HCT-15 colon = tested on: HCT-15 colon
IGROV1 ovarian = tested on: IGROV1 ovarian
A549 NSCLC = tested on: A549 NSCLC
RXF 393 renal = tested on: RXF 393 renal
SR leukemia = tested on: SR leukemia
HOP-92 NSCLC = tested on: HOP-92 NSCLC
SK-OV-3 ovarian = tested on: SK-OV-3 ovarian
OVCAR-8 ovarian = tested on: OVCAR-8 ovarian
SNB-75 CNS = tested on: SNB-75 CNS
T-47D breast = tested on: T-47D breast
UACC-62 melanoma = tested on: UACC-62 melanoma
DU-145 prostate = tested on: DU-145 prostate
MCF7 breast = tested on: MCF7 breast

| Structure (SMILES) | TGI (K-562 leukemia) [µM] | TGI (MOLT-4 leukemia) [µM] | TGI (LOX IMVI melanoma) [µM] | TGI (OVCAR-4 ovarian) [µM] | TGI (SN12C renal) [µM] | TGI (NCI-H226 lung) [µM] | TGI (MDA-N) [µM] | TGI (HCT-15 colon) [µM] | TGI (IGROV1 ovarian) [µM] | TGI (A549 NSCLC) [µM] | TGI (RXF 393 renal) [µM] | TGI (SR leukemia) [µM] | TGI (HOP-92 NSCLC) [µM] | TGI (SK-OV-3 ovarian) [µM] | TGI (OVCAR-8 ovarian) [µM] | TGI (SNB-75 CNS) [µM] | TGI (T-47D breast) [µM] | TGI (UACC-62 melanoma) [µM] | TGI (DU-145 prostate) [µM] | TGI (MCF7 breast) [µM] |
| --- | --- | --- | --- | --- | --- | --- | --- | --- | --- | --- | --- | --- | --- | --- | --- | --- | --- | --- | --- | --- |
| CN(C)C(=S)N1C(=S)N(c2ccccc2)C(=Nc2ccccc2)C1=Nc1ccccc1 | > 100 | > 100 | > 100 | > 100 | > 100 | > 100 | > 100 | > 100 | > 100 | > 100 | > 100 | > 100 | > 100 | > 100 | > 100 | > 100 | > 100 | > 100 | > 100 | – |
| Cc1c(C#N)c(N)[nH]c(=S)c1C#N | > 100 | > 100 | > 100 | – | > 100 | > 100 | > 100 | > 100 | > 100 | > 100 | > 100 | > 100 | – | – | > 100 | > 100 | > 100 | > 100 | > 100 | > 100 |
| COc1cccc(C(=O)Nc2c3ccccc3nc3ccccc23)c1OC | > 100 | > 100 | > 100 | > 100 | > 100 | > 100 | > 100 | > 100 | > 100 | > 100 | 72.2 | > 100 | – | > 100 | > 100 | 71 | > 100 | > 100 | > 100 | > 100 |
| C=CCOc1ccc(/C(N=Nc2ccc(C)cc2)=N/NC(=O)c2ccccc2)cc1OC | – | > 100 | 41.5 | > 100 | > 100 | 58.4 | 57.6 | > 100 | 62.1 | 64.9 | – | 25 | 41.8 | – | 91.4 | 65.6 | 45.3 | 31.6 | > 100 | 83.6 |
| Cc1cc(N)ccc1N=Nc1ccc(S(=O)(=O)CCOS(=O)(=O)O)cc1 | – | > 32.5 | 2.97 | 29 | 11.1 | 15.6 | 0.755 | 11.3 | 13.9 | 21.5 | 23.7 | > 100 | 19.5 | – | 5.89 | 19.8 | > 59.1 | 20.3 | > 100 | 11.8 |
| O=C(Nc1ccc(Cl)cc1)NS(=O)(=O)c1coc2ccccc2c1=O | – | > 10 | > 10 | > 10 | > 10 | > 10 | > 10 | > 10 | > 10 | > 10 | > 10 | > 10 | > 10 | > 10 | > 10 | > 10 | > 10 | > 10 | > 10 | > 10 |
| C=C[C@]1(O)CCC[C@]2(C)C(=O)CCC12C (stereo partly specified) | > 100 | > 100 | > 100 | > 100 | > 100 | > 100 | > 100 | > 100 | > 100 | > 100 | > 100 | > 100 | > 100 | > 100 | > 100 | – | > 100 | > 100 | > 100 | > 100 |
| CC1=CC=C2c3ccccc3C=CN2C(=O)C1 | > 100 | > 100 | > 100 | > 100 | > 100 | > 100 | > 100 | > 100 | > 100 | > 100 | – | > 100 | – | > 100 | > 100 | > 100 | > 100 | > 100 | > 100 | > 100 |
| Cc1ccc2c3c(cnc2n1)C(=O)OCCN3C | > 100 | > 100 | > 100 | > 100 | > 100 | – | > 100 | > 100 | > 100 | > 100 | > 100 | > 100 | > 100 | – | > 100 | – | > 100 | > 100 | > 100 | > 100 |
| O=C(/C=C/c1ccc(O)c(O)c1)OCc1ccccc1 | 61 | 39.1 | 71.6 | 79.2 | 51.8 | > 100 | > 100 | > 100 | 13.5 | 62.1 | 65.4 | 19.7 | 58 | 67.4 | – | – | 73.8 | 53.9 | 39.5 | 37.9 |
| CCOC(=O)/C(C=Nc1c(C)n(C)n(-c2ccccc2)c1=O)=C(/O)c1ccccc1 | > 100 | > 100 | > 100 | > 100 | > 100 | > 100 | > 100 | > 100 | > 100 | > 100 | > 100 | > 100 | > 100 | > 100 | – | – | > 100 | > 100 | > 100 | > 100 |
| COc1ccc(N=Nc2c(C)c(C#N)c(=S)n(C3OC(COC(C)=O)C(OC(C)=O)C(OC(C)=O)C3OC(C)=O)c2C)cc1 (stereo unspecified) | > 100 | > 100 | > 100 | > 100 | > 100 | – | > 100 | – | > 100 | > 100 | > 100 | > 100 | 63.5 | > 100 | – | 42.6 | > 100 | > 100 | > 100 | > 100 |
| CCOC(=O)CCC(NC(=O)OCc1ccccc1)C(=O)NC(CCC(=O)OCC)C(=O)NC(Cc1ccc([N+](=O)[O-])cc1)C(=O)NC(CCC(=O)OCC)C(=O)NC(CCC(=O)OCC)C(=O)OCC (stereo unspecified) (Cbz-E(OEt)E(OEt)[Phe(4-NO2)]E(OEt)E(OEt)-OEt; configuration not given here) | – | > 100 | > 100 | > 100 | > 100 | – | > 100 | > 100 | > 100 | > 100 | > 100 | > 100 | – | > 100 | > 100 | > 100 | > 100 | > 100 | > 100 | > 100 |
| N#CC1(C#N)NC(c2cccnc2)C(C#N)(C#N)NC1c1cccnc1 (stereo unspecified) | > 100 | > 100 | > 100 | > 100 | > 100 | > 100 | > 100 | > 100 | > 100 | > 100 | > 100 | – | > 100 | > 100 | > 100 | > 100 | > 100 | > 100 | > 100 | > 100 |
| NC1OC(COC(=O)c2ccccc2)C(O)C(OC(=O)c2ccccc2)C1OC(=O)c1ccccc1 (stereo unspecified) | – | 54 | 34.7 | > 100 | 50.9 | 43.1 | 46.5 | > 100 | 35.9 | 48 | 31.3 | – | 59.1 | > 100 | 37.8 | 39.8 | > 100 | 29.4 | > 100 | 68.2 |
| CCOC(=O)N1CC2(C)C=CC1C(C(=O)OC)C2 (stereo unspecified) | > 100 | > 100 | > 100 | > 100 | > 100 | > 100 | > 100 | > 100 | > 100 | > 100 | > 100 | > 100 | – | > 100 | > 100 | > 100 | > 100 | > 100 | > 100 | > 100 |
| Cc1ccc(/C=N/Nc2nc3ccccc3s2)s1 | > 100 | > 100 | > 100 | > 100 | 34.3 | > 100 | > 100 | > 100 | > 100 | > 100 | > 100 | – | > 100 | > 100 | > 100 | > 100 | > 100 | > 100 | > 100 | > 100 |
| CCCCCN1CCN(c2ncccn2)CC1 | > 100 | – | > 100 | > 100 | > 100 | – | > 100 | > 100 | > 100 | > 100 | > 100 | > 100 | > 100 | – | > 100 | > 100 | > 100 | > 100 | > 100 | > 100 |
| Cn1c2c(c3ccccc31)CCN1OCC=C[C@@H](C(=O)O)[C@@H]21 | – | – | > 100 | > 100 | > 100 | > 100 | > 100 | > 100 | > 100 | > 100 | > 100 | > 100 | > 100 | > 100 | > 100 | > 100 | > 100 | > 100 | > 100 | > 100 |
| CC1(C)C=Cc2c(cc3oc4ccc5c(c4c(=O)c3c2O)C=CC(C)(C)O5)O1 | – | > 100 | > 100 | > 100 | > 100 | > 100 | > 100 | > 100 | > 100 | > 100 | > 100 | > 100 | > 100 | > 100 | > 100 | – | > 100 | > 100 | > 100 | > 100 |
| Cc1ccc2nc(N/N=C/c3ccc(C)s3)cc(C)c2c1 | > 100 | 53.4 | 14.4 | 24.2 | 25.3 | 31.7 | 20.4 | 15.3 | 23.6 | 21.1 | 28.3 | > 100 | 21 | 32.7 | 31.3 | – | 41.9 | 23.6 | 23 | 20 |
| O=C1c2sc(-c3ccc(F)cc3)cc2-n2cccc21 | 74.2 | > 100 | > 100 | > 100 | 49.6 | 82.2 | > 100 | > 100 | 38.3 | > 100 | 73.1 | > 100 | – | 63 | > 100 | 43.7 | > 100 | > 100 | > 100 | > 100 |
| CCCc1cc(=O)oc2c(C=O)c(O)cc(O)c12 | > 100 | 56.5 | 40.3 | 73.5 | 78.9 | – | 75.6 | 73.4 | > 100 | > 100 | 53 | 58.1 | 45.8 | 86.9 | 62 | 47.4 | 74.9 | 38.4 | 82.2 | 80 |
| O=C1Oc2ccccc2C(=O)/C1=C/N1C(=O)/C(=C/c2ccc3c(c2)OCO3)SC1=S | 35.7 | 35.9 | > 58.8 | 47.9 | 51.6 | 34.5 | 77.7 | 33.2 | 37.2 | 35.4 | 40.2 | 31.4 | – | 38.5 | 40.9 | 19.2 | 31 | > 47.7 | 49.1 | > 58.4 |
| C1=Nc2ccc(cc2)N=Cc2ccccc2OCc2cccc(n2)COc2ccccc21 | > 100 | > 100 | > 100 | > 100 | > 100 | > 100 | > 100 | > 100 | > 100 | > 100 | 36.2 | > 100 | > 100 | > 100 | > 100 | – | > 100 | > 100 | > 100 | > 100 |
